Consider 76 molecules from PubChem BioAssay AID179 (DTP/NCI, 2004).

Activity calls are given as the source filed them.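 The calls were made as follows: active = compounds giving half or more protection of infected cells from virus-caused growth loss, again on retest; inactive = the rest.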

The test system of the assay is CEM cells HIV-1 protection, formazan growth assay. Nature of the assay: NCI AIDS Antiviral Assay. The conditions noted are these: for IC50: measured here: growth of uninfected CEM cells. Summed up: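 CEM (human) cells, HIV-1 infected vs uninfected, 5-point dosing, formazan growth read-out. Retest threshold 50% protection.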

The term EC50 denotes the concentration giving half of the maximal effect. The term IC50 denotes the midpoint of a concentration-inhibition curve. A lower IC50 goes with higher potency.

As to `Nc1cc(N2CCOCC2)nc(=O)n1-c1ccccc1`, the EC50 was above 200 µM and the IC50 is above 200 µM.

Regarding `CCOC(=O)C1(C/C=C\CBr)CCCCCCCCCCC1=O` (centres undefined), the EC50 was above 200 µM and the IC50 is 0.933 µM.

As to `CN1c2ccccc2SC2C(c3ccccc3)=NOC21` (centres undefined), the EC50 was above 200 µM and the IC50 was determined as 45.7 µM.

In the case of `Cl/C=C\C[N+]12CN3CN(CN(C3)C1)C2`, the EC50 is above 200 µM and the IC50 came to 93.3 µM.

As for `CC(C)(C)n1c(=O)n2n(c1=O)C1c3cccc4cccc(c34)C2C2c3cccc4cccc(c34)C1n1c(=O)n(C(C)(C)C)c(=O)n12`, the EC50 is above 200 µM and the IC50 is 50.1 µM.

As to `COc1ccc(C(=O)C2=NON3OC23C(=O)c2ccc(OC)cc2)cc1` (centres undefined), the EC50 was above 38 µM and the IC50 came out at 6.76 µM.

With `CCOC(=O)NNC(=O)NC12CC3CC(CC(C3)C1)C2`, the outcome was inactive.

With `COC(=O)CNCc1cc(N(C)C)cc(CNCC(=O)OC)n1`, the EC50 was above 200 µM and the IC50 was above 200 µM.

As for `CN(C)c1ccc(/C=C/c2ccnc3ccc4ccccc4c23)cc1`, the EC50 is above 79.4 µM and the IC50 is above 79.4 µM.

In the case of `CC1Nc2ccccc2NC1C=C(C#N)C#N` (centres undefined), the EC50 is above 44.7 µM and the IC50 stood at 6.76 µM.

As for `CN(C)CCNc1c2ccccc2nc2cccc([N+](=O)[O-])c12`, the EC50 was above 2 µM and the IC50 is 0.024 µM.

For `COc1cc(/C=C/c2nc(N)nnc2C)cc(OC)c1OC`, the EC50 was above 200 µM and the IC50 was 2.82 µM.

Consider `COc1cccc(/C=N/[N-]C(=O)c2ccncc2)c1[O-].[Co+2].[OH3+]`, for which the EC50 is above 20.9 µM and the IC50 is above 20.9 µM.

Take `COc1ccc2cc3[n+](cc2c1O)CCc1cc2c(cc1-3)OCO2`: the EC50 is above 347 µM and the IC50 came to 6.03 µM.

For `NC(=O)N/N=C(\CC1OC(=O)c2ccccc21)c1ccco1` (centres undefined), the EC50 is above 832 µM and the IC50 was above 832 µM.

With `CSc1nc(C)cc(N(C)c2ccccc2)n1`, the EC50 was above 200 µM and the IC50 came out at 32.4 µM.

With `O=C(O)c1cscc1C(=O)O`, the EC50 was above 200 µM and the IC50 is above 200 µM.

With `CC(=O)N=C1N(/C=C2\C(=O)Oc3ccccc3C2=O)C(=O)/C(=C/c2ccc(NC(C)=O)cc2)N1C`, the EC50 is above 200 µM and the IC50 was above 200 µM.

With `C=C1C2=C(CCCC2)C(=O)OC12CCCCC2`, the EC50 was above 100 µM and the IC50 is above 100 µM.

`O=P(Oc1ccccc1)(Oc1ccccc1)N1CCOCC1`: the EC50 was above 200 µM and the half-inhibitory concentration (IC50) came to 170 µM.

For the molecule `O=c1[nH]c(C2CCCCC2)nc2cc(Cl)ccc12`, the result was inactive.

On to `CCCCCC=C(c1cc(Cl)c(OC)c(C(N)=O)c1)c1cc(Cl)c(OC)c(C(N)=O)c1`, for which the EC50 is 1.82 µM and the IC50 came to 15.8 µM.

With `C[C@]12CCC3[C@@H](CCC4(C=N)CC(=O)CC[C@]34C)C1CC[C@@H]2O` (some centres undefined), the outcome was inactive.

For `COc1cc(/C=C/c2ccnc3ccccc23)cc(OC)c1OC`, the EC50 is above 200 µM and the IC50 is 1.48 µM.

Consider `C1COC(NC(C2CC2)C2CC2)=N1`, for which the result was inactive.

For `Cc1nc(N(C(C)C)C(C)C)c(C(C)C)o1`, the EC50 is above 200 µM and the 50% inhibitory concentration (IC50) was above 200 µM.

Consider `CC(=O)OC1CCC2(C)C(CCC3C4CCC(C(C)OC(C)=O)C4NC(=O)CC32)C1` (centres undefined), for which the outcome was inactive.

Regarding `O=c1c2cc(-c3ccccc3)cnc2sn1-c1ccc([N+](=O)[O-])cc1`, the EC50 was above 200 µM and the IC50 is 39.8 µM.

For the molecule `CC(=O)NC(CCCNC(=O)OCc1ccccc1)C(=O)NCc1ccccc1` (centres undefined), the EC50 was above 170 µM and the half-inhibitory concentration (IC50) is above 170 µM.

`NC1=NC2=c3ccccc3=C(c3cnccn3)C2(c2cnccn2)c2ccccc21` (centres undefined): the EC50 is above 93.3 µM and the 50% inhibitory concentration (IC50) was 70.8 µM.

Turning to `O=C1OC(c2ccccc2)(c2ccccc2)c2ccc3ccc(F)cc3c21`, the outcome was inactive.

Regarding `CCOC(=O)Nc1ccc2nc(-c3cscn3)[nH]c2c1`, the EC50 was above 457 µM and the concentration for half-maximal inhibition (IC50) came out at 1.66 µM.

On to `O=C1CC2(c3ccccc3)ON=C(c3ccccc3)N2c2ccccc2N1` (centres undefined), for which the EC50 is above 200 µM and the IC50 was found to be 85.1 µM.

Consider `O=C(O)c1cccc(Sc2ccccc2)c1`, for which the EC50 is above 407 µM and the IC50 turned out to be 251 µM.

Regarding `CCOC(=O)/C(=C\c1ccc(Cl)cc1)C(C)=O`, the EC50 is above 372 µM and the IC50 was 64.6 µM.

On to `CC1OC1C(=O)P(=O)(O)O` (centres undefined), for which the EC50 is above 200 µM and the IC50 is above 200 µM.

As to `O=c1[nH]c(Cc2ccccc2)nc2c1sc1nc3ccccc3n12`, the EC50 is above 200 µM and the IC50 was above 200 µM.

Turning to `CC(C)(C)OC(=O)NCCCCC(N)C(N)=O` (centres undefined), the EC50 was above 200 µM and the IC50 is above 200 µM.

For `CC(=O)OCC1OC(Nc2[nH]c(=O)n(C)c(=O)c2-c2csc(N)n2)C(OC(C)=O)C(OC(C)=O)C1OC(C)=O` (centres undefined), the outcome was inactive.

Take `COC(=O)c1cc(C(=O)OC)c(CC(=O)C(=O)NC2C3CC4CC(C3)CC2C4)nc1CC(=O)C(=O)NC1C2CC3CC(C2)CC1C3` (centres undefined): the EC50 is above 282 µM and the IC50 is above 282 µM.

For the molecule `CCN(CC)CCOC(=O)c1cc2ccccc2n1Cc1ccccc1`, the EC50 was above 100 µM and the IC50 was above 100 µM.

For the molecule `Cc1cc(C)c(C(=O)/C(=C/c2ccccc2)c2ccccc2)c(C)c1`, the EC50 is above 15.8 µM and the IC50 was above 15.8 µM.

For the molecule `Nc1ccc(C(=O)NN2C(=O)C(Cl)C2c2cccc([N+](=O)[O-])c2)cc1` (centres undefined), the EC50 is above 200 µM and the 50% inhibitory concentration (IC50) turned out to be 10.2 µM.

`CC(C)(C)C(=O)[O-].N.N.N.N.N.[Co+3].[O-][Cl+3]([O-])([O-])[O-]`: the outcome was inactive.

Regarding `Cn1nc2n(c1=O)CCCN2`, the EC50 was above 200 µM and the IC50 was above 200 µM.

In the case of `CC(C)(C)C(=O)ON1N=NC2C3CC(OCc4ccccc4)(OCc4ccccc4)C(O3)C21` (centres undefined), the EC50 was above 15.8 µM and the IC50 is above 15.8 µM.

`O=C(OCCc1ccccc1)c1ccc2c(O)c(O)ccc2c1`: the EC50 is above 8.32 µM and the IC50 came to 6.03 µM.

For `C=CCN(CCN(CC=C)S(=O)(=O)c1ccc(C)cc1)S(=O)(=O)c1ccc(C)cc1`, the EC50 was above 22.4 µM and the IC50 was above 22.4 µM.

Take `O=C1CCC[C@]2(CCC[C@@H](O)C2)N1`: the EC50 was above 200 µM and the half-maximal inhibitory concentration (IC50) is above 200 µM.

In the case of `Nc1ccc([N+](=O)[O-])cc1N=C/C=C/c1ccccc1`, the EC50 is above 10.2 µM and the IC50 was above 10.2 µM.

In the case of `N[C@@H]1c2c(csc2Br)C(=O)[C@@H]1O`, the EC50 is above 200 µM and the IC50 came out at 11 µM.

As to `CCNC(=S)NNC(=O)c1nsc2ccccc12`, the EC50 is above 339 µM and the IC50 was determined as 186 µM.

For the molecule `O=C1CC(c2ccc([N+](=O)[O-])cc2)=Nc2ccccc2N1`, the EC50 is above 200 µM and the IC50 was above 200 µM.

As to `C/C=C/C=C/c1nc(C#N)c(N)o1`, the EC50 was above 200 µM and the IC50 is 85.1 µM.

As for `CCSCCCSCCSCC`, the EC50 was above 158 µM and the IC50 is above 158 µM.

`CC[C@]1(Cc2ccc(OC)c(OC)c2)[C@@H]2C[C@@H](C3OCCO3)ON2O[C@H](OC2CCCC2(c2ccccc2)c2ccccc2)[C@@H]1OC(C)=O` (some centres undefined): the EC50 is above 200 µM and the 50% inhibitory concentration (IC50) worked out at 21.9 µM.

In the case of `CN(C)N=Nc1ccc2[nH]c(=O)[nH]c2c1`, the EC50 is above 200 µM and the IC50 came to 102 µM.

Consider `CN(C)c1nc(=NCc2cccnc2)ss1`, for which the EC50 was above 200 µM and the IC50 is 11.5 µM.

On to `COc1ccc(NC(=O)CCc2cc(-c3ccc(O)c(OC)c3)nc(NC#N)n2)cc1`, for which the EC50 is above 224 µM and the IC50 was above 224 µM.

As for `O=C1c2ccccc2C(=O)c2c(O)c(NCCNCCO)cc(O)c21`, the result was inactive.

Take `COc1ccc(CCNC(=S)/N=C\C(C(=O)c2ccccc2)=C(\O)c2ccccc2)cc1OC`: the result was inactive.

On to `O=C(c1ccccc1)c1c(-c2ccccc2)sc2nc3ccccc3nc12`, for which the EC50 was above 27.5 µM and the IC50 is above 27.5 µM.

On to `CC1CCC(=O)C(C(O)CC2CC(=O)N(c3ccccc3)C(=O)C2)C1` (centres undefined), for which the EC50 is above 200 µM and the IC50 was above 200 µM.

Turning to `Nc1ncnc2c1ncn2C1C=CC(CP(=O)(O)O)C1` (centres undefined), the EC50 is above 200 µM and the half-inhibitory concentration (IC50) is above 200 µM.

For the molecule `O=C1C(S(=O)(=O)c2ccccc2)=C(CS(=O)(=O)c2ccccc2)[C@@H](OCc2ccccc2)[C@@H]1OCc1ccccc1`, the EC50 is above 20 µM and the IC50 amounted to 9.55 µM.

With `Nc1ccc2c(c1)Oc1c(F)c(F)cc3c(=O)c(C(=O)O)cn-2c13`, the EC50 is above 11.5 µM and the IC50 stood at 11.2 µM.

Consider `O=C(O)c1n[nH][nH]c1=S`, for which the EC50 is 126 µM and the IC50 is above 200 µM.

For the molecule `CCCCCCCCCCCc1c2oc3ccc([N+](=O)[O-])cc3nc-2cc(Nc2cc([N+](=O)[O-])ccc2O)c1=O`, the EC50 is above 3.31 µM and the IC50 is above 3.31 µM.

Regarding `Cc1ccc2c(c1C)CC1(Cc3ccc(C)c(C)c3C1=O)C2=O` (centres undefined), the EC50 is above 100 µM and the IC50 was above 100 µM.

On to `CCc1cccc(C(C)C)c1NC(=O)C(=O)Nn1c(=S)[nH]c2ccccc2c1=O`, for which the EC50 is above 123 µM and the IC50 is above 123 µM.

The molecule `OC1(c2ccccc2)c2ccccc2Oc2ccccc21` had an EC50 above 200 µM and an IC50 of 17.4 µM.

With `COc1ccc2c(c1)CCc1cnc(=S)[nH]c1-2`, the EC50 was above 40.7 µM and the IC50 was above 40.7 µM.

`COc1cc(C(=O)Nc2c3ccccc3nc3ccccc23)cc(OC)c1OC`: the EC50 is above 200 µM and the IC50 is above 200 µM.

For `COC(=O)c1c(CC(=O)O)oc2c1CCCC2`, the result was inactive.

On to `O=C1c2ccccc2C(=O)C1(Cl)C1(Cl)C(=O)c2ccccc2C1=O`, for which the outcome was inactive.

On to `CN(C)CCOCn1nnc2ccccc21`, for which the outcome was inactive.
